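Briefly, cells in 96-well plates were exposed to five compound concentrations for 48 h, and endpoints were estimated by linear interpolation. GI50: concentration for 50% inhibition of growth.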 Active and inactive are the calls of the source. Rule as the data show it: active = GI50 up to about 1.1 µM and inactive = higher.
What was measured:
Experiment in all cases: growth of human tumour cells (NCI), 48 h
SF-295 = system: SF-295
LXFL 529 = system: LXFL 529
U-251 = system: U-251
SNB-75 = system: SNB-75
SF-539 = system: SF-539
SR = system: SR
UO-31 = system: UO-31
RPMI-8226 = system: RPMI-8226
IGROV-1 = system: IGROV-1
HOP-92 = system: HOP-92
SK-MEL-28 = system: SK-MEL-28
SK-MEL-5 = system: SK-MEL-5
HCC 2998 = system: HCC 2998
MOLT-4 = system: MOLT-4
NCI-H23 = system: NCI-H23
SN12C = system: SN12C
NCI-H226 = system: NCI-H226
CAKI-1 = system: CAKI-1
HOP-62 = system: HOP-62
NCI-H460 = system: NCI-H460
CCRF-CEM = system: CCRF-CEM
SNB-19 = system: SNB-19
KM12 = system: KM12
HCT-116 = system: HCT-116
UACC-257 = system: UACC-257
NCI-H522 = system: NCI-H522
SF-268 = system: SF-268
EKVX = system: EKVX
A549 = system: A549
XF498 = system: XF498
HT-29 = system: HT-29
HCT-15 = system: HCT-15
RXF 393 = system: RXF 393
OVCAR-3 = system: OVCAR-3
RXF 631 = system: RXF 631
SK-MEL-2 = system: SK-MEL-2
DMS-273 = system: DMS-273
HOP-18 = system: HOP-18
ACHN = system: ACHN
SK-OV-3 = system: SK-OV-3
DLD-1 = system: DLD-1
SW-620 = system: SW-620
OVCAR-4 = system: OVCAR-4
KM-20L2 = system: KM-20L2
M14 = system: M14
786-0 = system: 786-0
M19-MEL = system: M19-MEL
Malme-3M = system: Malme-3M
LOX IMVI = system: LOX IMVI
K562 = system: K562
OVCAR-8 = system: OVCAR-8
TK-10 = system: TK-10
SNB-78 = system: SNB-78
COLO 205 = system: COLO 205
HL-60 = system: HL-60
UACC-62 = system: UACC-62
OVCAR-5 = system: OVCAR-5
DMS-114 = system: DMS-114
A498 = system: A498

For `O=C(O/N=C1/CCCC/C1=C\c1ccccc1)c1ccc(Cl)c(Cl)c1`, which GI50 (SF-295) is on record?
Its GI50 is 31.8 µM (inactive).

And the GI50 (LXFL 529)?
Its GI50 is 14.6 µM (inactive).

And the GI50 (U-251)?
Its GI50 is 17.3 µM (inactive).

What about the GI50 (SNB-75) of the same molecule?
Its GI50 is 27.5 µM (inactive).

And the GI50 (SF-539)?
The GI50 was 24.5 µM (inactive).

And the GI50 (SR)?
Its GI50 is 8.2 µM (inactive).

What about the GI50 (UO-31) of the same molecule?
Its GI50 is 17.9 µM (inactive).

And the GI50 (RPMI-8226)?
The GI50 was 36.2 µM (inactive).

And the GI50 (IGROV-1)?
The GI50 was 21.5 µM (inactive).

And the GI50 (HOP-92)?
The GI50 was 26.8 µM (inactive).

What about the GI50 (SK-MEL-28) of the same molecule?
The GI50 was 18.3 µM (inactive).

What about the GI50 (SK-MEL-5) of the same molecule?
The GI50 was 38.5 µM (inactive).

What about the GI50 (HCC 2998) of the same molecule?
Its GI50 is > 100 µM (inactive).

And the GI50 (MOLT-4)?
The GI50 was 13.3 µM (inactive).

What about the GI50 (NCI-H23) of the same molecule?
Its GI50 is 19.2 µM (inactive).

What about the GI50 (SN12C) of the same molecule?
Its GI50 is 49.8 µM (inactive).

What about the GI50 (NCI-H226) of the same molecule?
Its GI50 is 45.9 µM (inactive).

And the GI50 (CAKI-1)?
Its GI50 is 27.3 µM (inactive).

And the GI50 (HOP-62)?
Its GI50 is 52.5 µM (inactive).

And the GI50 (NCI-H460)?
The GI50 was 40.3 µM (inactive).

And the GI50 (CCRF-CEM)?
The GI50 was 21.8 µM (inactive).

What about the GI50 (SNB-19) of the same molecule?
The GI50 was 69.7 µM (inactive).

What about the GI50 (KM12) of the same molecule?
Its GI50 is 46.7 µM (inactive).

What about the GI50 (HCT-116) of the same molecule?
The GI50 was 13.6 µM (inactive).

And the GI50 (UACC-257)?
The GI50 was > 100 µM (inactive).

What about the GI50 (NCI-H522) of the same molecule?
The GI50 was 18.4 µM (inactive).

And the GI50 (SF-268)?
The GI50 was 11.5 µM (inactive).

What about the GI50 (EKVX) of the same molecule?
The GI50 was 38.3 µM (inactive).

And the GI50 (A549)?
The GI50 was 17.5 µM (inactive).

And the GI50 (XF498)?
The GI50 was 48.8 µM (inactive).

What about the GI50 (HT-29) of the same molecule?
The GI50 was 22.4 µM (inactive).

And the GI50 (HCT-15)?
Its GI50 is 33.3 µM.

What about the GI50 (RXF 393) of the same molecule?
Its GI50 is 27.7 µM (inactive).

And the GI50 (OVCAR-3)?
The GI50 was 21 µM (inactive).

And the GI50 (RXF 631)?
Its GI50 is 16.8 µM (inactive).

What about the GI50 (SK-MEL-2) of the same molecule?
The GI50 was > 100 µM (inactive).

What about the GI50 (DMS-273) of the same molecule?
The GI50 was 23.9 µM (inactive).

What about the GI50 (HOP-18) of the same molecule?
Its GI50 is > 100 µM (inactive).

What about the GI50 (ACHN) of the same molecule?
The GI50 was 15.5 µM (inactive).

And the GI50 (SK-OV-3)?
The GI50 was > 100 µM (inactive).

What about the GI50 (DLD-1) of the same molecule?
The GI50 was 84.5 µM (inactive).

What about the GI50 (SW-620) of the same molecule?
Its GI50 is 18.7 µM (inactive).

What about the GI50 (OVCAR-4) of the same molecule?
Its GI50 is 20.7 µM (inactive).

What about the GI50 (KM-20L2) of the same molecule?
The GI50 was 65.3 µM (inactive).

And the GI50 (M14)?
Its GI50 is > 100 µM (inactive).

And the GI50 (786-0)?
The GI50 was 30.2 µM (inactive).

What about the GI50 (M19-MEL) of the same molecule?
The GI50 was 68.7 µM (inactive).

And the GI50 (Malme-3M)?
Its GI50 is 0.443 µM (active).

And the GI50 (LOX IMVI)?
The GI50 was 20 µM (inactive).

What about the GI50 (K562) of the same molecule?
Its GI50 is 15.8 µM (inactive).

What about the GI50 (OVCAR-8) of the same molecule?
Its GI50 is 17.9 µM (inactive).

What about the GI50 (TK-10) of the same molecule?
The GI50 was 23.2 µM (inactive).

What about the GI50 (SNB-78) of the same molecule?
Its GI50 is 19.1 µM (inactive).

What about the GI50 (COLO 205) of the same molecule?
The GI50 was 28.2 µM (inactive).

What about the GI50 (HL-60) of the same molecule?
Its GI50 is 14.5 µM (inactive).

And the GI50 (UACC-62)?
The GI50 was 17.1 µM (inactive).

And the GI50 (OVCAR-5)?
The GI50 was 69.2 µM (inactive).

Which results are given for `CCOC(=O)C(/N=N\c1ccc(S(N)(=O)=O)cc1)C(C)=O` (stereo unspecified)?
GI50 (SF-295): > 100 µM (inactive); GI50 (LXFL 529): > 100 µM (inactive); GI50 (U-251): > 100 µM (inactive); GI50 (SNB-75): > 100 µM (inactive); GI50 (SF-539): > 100 µM (inactive); GI50 (SR): > 100 µM (inactive); GI50 (UO-31): > 100 µM (inactive); GI50 (RPMI-8226): > 100 µM (inactive); GI50 (DMS-114): > 100 µM (inactive); GI50 (IGROV-1): > 100 µM (inactive); GI50 (HOP-92): > 100 µM (inactive); GI50 (SK-MEL-28): > 100 µM (inactive); GI50 (SK-MEL-5): > 100 µM (inactive); GI50 (HCC 2998): 99.5 µM (inactive); GI50 (MOLT-4): > 100 µM (inactive); GI50 (NCI-H23): > 100 µM (inactive); GI50 (SN12C): > 100 µM (inactive); GI50 (NCI-H226): > 100 µM (inactive); GI50 (CAKI-1): > 100 µM (inactive); GI50 (HOP-62): > 100 µM (inactive); GI50 (NCI-H460): > 100 µM (inactive); GI50 (CCRF-CEM): > 100 µM (inactive); GI50 (SNB-19): > 100 µM (inactive); GI50 (KM12): > 100 µM (inactive); GI50 (HCT-116): > 100 µM (inactive); GI50 (UACC-257): > 100 µM (inactive); GI50 (NCI-H522): > 100 µM (inactive); GI50 (SF-268): > 100 µM (inactive); GI50 (EKVX): > 100 µM (inactive); GI50 (A549): > 100 µM (inactive); GI50 (XF498): > 100 µM (inactive); GI50 (HT-29): > 100 µM (inactive); GI50 (HCT-15): > 100 µM; GI50 (RXF 393): > 100 µM (inactive); GI50 (OVCAR-3): > 100 µM (inactive); GI50 (RXF 631): > 100 µM (inactive); GI50 (SK-MEL-2): > 100 µM (inactive); GI50 (DMS-273): > 100 µM (inactive); GI50 (HOP-18): > 100 µM (inactive); GI50 (ACHN): > 100 µM (inactive); GI50 (SK-OV-3): > 100 µM (inactive); GI50 (DLD-1): > 100 µM (inactive); GI50 (SW-620): > 100 µM (inactive); GI50 (OVCAR-4): > 100 µM (inactive); GI50 (KM-20L2): > 100 µM (inactive); GI50 (A498): > 100 µM (inactive); GI50 (M14): > 100 µM (inactive); GI50 (786-0): > 100 µM (inactive); GI50 (M19-MEL): > 100 µM (inactive); GI50 (Malme-3M): > 100 µM (inactive); GI50 (LOX IMVI): > 100 µM (inactive); GI50 (K562): > 100 µM (inactive); GI50 (OVCAR-8): > 100 µM (inactive); GI50 (TK-10): > 100 µM (inactive); GI50 (SNB-78): > 100 µM (inactive); GI50 (COLO 205): > 100 µM (inactive); GI50 (HL-60): > 100 µM (inactive); GI50 (UACC-62): > 100 µM (inactive); GI50 (OVCAR-5): > 100 µM (inactive)

Source: ChEMBL document CHEMBL1201862, “PubChem BioAssay data set” (2004)
